From article PMC7217877, “N-AS-triggered SPMs are direct regulators of microglia in a model of Alzheimer’s disease” (Nature Communications, 2020)
Several values for one entry are separate records, joined by “and”; a condition that tells them apart may be missing. Equal entries are not always repeated.

Test system: neuron
Test: N-AS generation in primary cultured cells (LC-MS/MS)
Type: cell-based, C57BL/6 mice
Parameters: N-AS quantification (Fig 3a): dose or concentration left out as unconfirmed
Details: replicates
Experimental: Reactions were quenched by adding equal volume of cold methanol. A 100 μl aliquot of the reaction mixture was mixed with 30 μl of distilled water containing 5 ng ml^−1 of furosemide (internal standard) for 1 min and vigorously mixed with […] of ethyl acetate for 20 min. After centrifugation at 16,000×g for 10 min, the mixtures were kept for 2 h for freezing aqueous phase. The upper ethyl acetate layer was transferred to a clean tube and evaporated to dryness under a gentle stream of nitrogen. Then, the dried extract was reconstituted in 100 µl of mobile phase and 10 µl aliquot of the solution was injected into an Agilent 6470 Triple Quad LC–MS/MS system (Agilent, Wilmington, DE) coupled with an Agilent 1260 HPLC system. Separation was performed on a Synergy Polar RP column (4 μm particle size, 2.0 mm × 150 mm, Phenomenex) using a mobile phase that consisted of methanol and water (95:5, v/v) with 0.1% formic acid at a flow rate of 0.2 ml min^−1. Quantification was carried out using multiple reaction monitoring (MRM) at m/z 340.3→263.3 for N-AS and m/z 328.9→284.8 for furosemide (internal standard) in negative ionization mode and collision energy of 20 eV. […] Also, to confirm N-AS generation in neurons, microglia, and astrocytes, these cells were treated with Aβ, and sonicated in neuronal and glial culture medium. […] To evaluate N-AS in microglia and neurons in vivo, the cells were isolated from WT mice, APP/PS1 mice and APP/PS1 mice treated with N-AS at 9 months of age. The cells were sonicated and resuspended in glial and neuronal culture medium, respectively. A 100 μl aliquot of each cell lysate were used for the determination of N-AS using a method previously described.
To confirm the generation and roles of N-AS in neurons, cells from E18 C57BL/6 mice were prepared as previously described. Cortices were dissected and then dissociated followed by incubation in papain (Worthington) at 37 °C for 15 min. […] Aβ 1–42 (10 μM, 24 h, Invitrogen, 03112) was exposed to neurons and the cells were analyzed for the generation and roles of N-AS. […]

Molecule	N-AS quantification (Fig 3g) (Ab + supplement)	N-AS quantification (Fig 3g) (Ab, no supplement)	N-AS quantification (Fig 3a) (Ab)
CC(=O)SCCNC(=O)CCNC(=O)[C@H](O)C(C)(C)COP(=O)(O)OP(=O)(O)OC[C@H]1O[C@@H](n2cnc3c(N)ncnc32)[C@H](O)[C@@H]1OP(=O)(O)O [Acetyl-CoA, acetyl-CoA]	0.4129 and 0.455 and 0.2582 and 0.5811 and 0.497		
Ab: Aβ 1–42 (Invitrogen, 03112) used to induce an AD environment in cells		0.5069 and 0.4708 and 0.3905 and 0.3625 and 0.4347	0.5349 and 0.246 and 0.4789 and 0.3905 and 0.3625 and 0.4347
